Reference: patent US20260216108A1, “PHARMACEUTICAL COMPOSITION CONTAINING A MITOPHAGY INDUCER” (HANGZHOU PHECDAMED CO., LTD., priority 2023, published 2026)

Experiment: Compatibility test of API and auxiliary materials: relevant substances (impurities) by HPLC
Type: physicochemical
Details: for Change of relevant substance (in words): 30 days
Protocol: 4. Using HPLC method to detect the content of the sample and relevant substances.
The parameters of the HPLC method for the detection of the content and relevant substances are detailed in Table 2 below.
Placing the samples under experimental conditions of high temperature (60° C.), high humidity (92.5% RH), acceleration (40° C./75% RH) and illumination (visible light 5500 Lux±500 Lux, near ultraviolet light 85 μw/cm2), […] Submitting the samples for relevant indicator testing (test items include appearance, hygroscopic weight gain, content and relevant substances), and comparing the test results with the control samples (raw material).

For O=C(O)C[S+]([O-])c1cc(NS(=O)(=O)c2ccc(Br)cc2)c2ccccc2c1O (centres unmarked) [API], the “% Impurities RRT1.73” value (60° C., opened, 30 d) was <0.05%, the “% Impurities RRT1.74” value (60° C., opened, 30 d) was 0.09% and the “% Impurities Total” value (60° C., opened, 30 d) was 1.40%. The “% Impurities RRT0.46” value (92.5% RH, opened, 0 d) was <0.05%, the “% Impurities RRT0.89” value (92.5% RH, opened, 0 d) was 0.08% and the “% Impurities RRT1.10” value (92.5% RH, opened, 0 d) was <0.05%. The “% Impurities RRT1.16” value (92.5% RH, opened, 0 d) was 0.88%, the “% Impurities RRT1.20” value (92.5% RH, opened, 0 d) was 0.09% and the “% Impurities RRT1.24” value (92.5% RH, opened, 0 d) was <0.05%. The “% Impurities RRT1.29” value (92.5% RH, opened, 0 d) was 0.14%, the “% Impurities RRT1.33” value (92.5% RH, opened, 0 d) was 0.10% and the “% Impurities RRT1.37” value (92.5% RH, opened, 0 d) was 0.07%. For the same molecule, the “% Impurities RRT1.41” value (92.5% RH, opened, 0 d) was <0.05%, the “% Impurities RRT1.43” value (92.5% RH, opened, 0 d) was <0.05% and the “% Impurities RRT1.73” value (92.5% RH, opened, 0 d) was <0.05%. For the same molecule, the “% Impurities RRT1.74” value (92.5% RH, opened, 0 d) was 0.05%, the “% Impurities Total” value (92.5% RH, opened, 0 d) was 1.41% and the “% Impurities RRT0.37” value (92.5% RH, opened, 10 d) was <0.05%. For the same molecule, the “% Impurities RRT0.46” value (92.5% RH, opened, 10 d) was 0.10%, the “% Impurities RRT0.89” value (92.5% RH, opened, 10 d) was 0.14% and the “% Impurities RRT1.10” value (92.5% RH, opened, 10 d) was <0.05%. The “% Impurities RRT1.16” value (92.5% RH, opened, 10 d) was 1.63%, the “% Impurities RRT1.20” value (92.5% RH, opened, 10 d) was 0.07% and the “% Impurities RRT1.21” value (92.5% RH, opened, 10 d) was <0.05%. The “% Impurities RRT1.24” value (92.5% RH, opened, 10 d) was <0.05%, the “% Impurities RRT1.29” value (92.5% RH, opened, 10 d) was 0.12% and the “% Impurities RRT1.33” value (92.5% RH, opened, 10 d) was 0.08%. The “% Impurities RRT1.37” value (92.5% RH, opened, 10 d) was 0.07%, the “% Impurities RRT1.41” value (92.5% RH, opened, 10 d) was 0.10% and the “% Impurities RRT1.43” value (92.5% RH, opened, 10 d) was <0.05%. The “% Impurities RRT1.54” value (92.5% RH, opened, 10 d) was 0.06%, the “% Impurities RRT1.64” value (92.5% RH, opened, 10 d) was 0.13% and the “% Impurities RRT1.70” value (92.5% RH, opened, 10 d) was <0.05%. The “% Impurities RRT1.73” value (92.5% RH, opened, 10 d) was 0.41%, the “% Impurities RRT1.74” value (92.5% RH, opened, 10 d) was 0.08% and the “% Impurities Total” value (92.5% RH, opened, 10 d) was 2.99%. For the same molecule, the “% Impurities RRT0.37” value (92.5% RH, opened, 30 d) was <0.05%, the “% Impurities RRT0.46” value (92.5% RH, opened, 30 d) was 0.17% and the “% Impurities RRT0.89” value (92.5% RH, opened, 30 d) was 0.12%. The “% Impurities RRT1.10” value (92.5% RH, opened, 30 d) was <0.05%, the “% Impurities RRT1.16” value (92.5% RH, opened, 30 d) was 1.65% and the “% Impurities RRT1.20” value (92.5% RH, opened, 30 d) was 0.06%. The “% Impurities RRT1.24” value (92.5% RH, opened, 30 d) was 0.05%, the “% Impurities RRT1.29” value (92.5% RH, opened, 30 d) was 0.07% and the “% Impurities RRT1.33” value (92.5% RH, opened, 30 d) was 0.08%. The “% Impurities RRT1.37” value (92.5% RH, opened, 30 d) was 0.08%, the “% Impurities RRT1.41” value (92.5% RH, opened, 30 d) was 0.09% and the “% Impurities RRT1.43” value (92.5% RH, opened, 30 d) was 0.05%. For the same molecule, the “% Impurities RRT1.54” value (92.5% RH, opened, 30 d) was <0.05%, the “% Impurities RRT1.64” value (92.5% RH, opened, 30 d) was 0.21% and the “% Impurities RRT1.70” value (92.5% RH, opened, 30 d) was 0.05%. The “% Impurities RRT1.73” value (92.5% RH, opened, 30 d) was 0.53%, the “% Impurities RRT1.74” value (92.5% RH, opened, 30 d) was 0.10% and the “% Impurities Total” value (92.5% RH, opened, 30 d) was 3.31%. The “% Impurities RRT0.46” value (Illumination, opened, 0 d) was <0.05%, the “% Impurities RRT0.89” value (Illumination, opened, 0 d) was 0.08% and the “% Impurities RRT1.16” value (Illumination, opened, 0 d) was 0.88%. The “% Impurities RRT1.20” value (Illumination, opened, 0 d) was 0.09%, the “% Impurities RRT1.29” value (Illumination, opened, 0 d) was 0.14% and the “% Impurities RRT1.33” value (Illumination, opened, 0 d) was 0.10%. For the same molecule, the “% Impurities RRT1.37” value (Illumination, opened, 0 d) was 0.07%, the “% Impurities RRT1.41” value (Illumination, opened, 0 d) was <0.05% and the “% Impurities RRT1.73” value (Illumination, opened, 0 d) was <0.05%. For the same molecule, the “% Impurities RRT1.74” value (Illumination, opened, 0 d) was 0.05%, the “% Impurities Total” value (Illumination, opened, 0 d) was 1.41% and the “% Impurities RRT0.46” value (Illumination, opened, 10 d) was 0.06%. For the same molecule, the “% Impurities RRT0.89” value (Illumination, opened, 10 d) was 0.17%, the “% Impurities RRT1.16” value (Illumination, opened, 10 d) was 0.91% and the “% Impurities RRT1.20” value (Illumination, opened, 10 d) was 0.08%. The “% Impurities RRT1.29” value (Illumination, opened, 10 d) was 0.20%, the “% Impurities RRT1.33” value (Illumination, opened, 10 d) was 0.09% and the “% Impurities RRT1.37” value (Illumination, opened, 10 d) was 0.07%. For the same molecule, the “% Impurities RRT1.41” value (Illumination, opened, 10 d) was <0.05%, the “% Impurities RRT1.73” value (Illumination, opened, 10 d) was 0.05% and the “% Impurities RRT1.74” value (Illumination, opened, 10 d) was 0.07%. The “% Impurities Total” value (Illumination, opened, 10 d) was 1.70%, the “Change of relevant substance (in words)” value (acceleration 40° C./75% RH, opened) was “increased significantly at RRT0.46, RRT1.16, RRT1.63 and RRT1.73, and increased slightly at RRT1.41 and RRT1.43” and the “Stability of API (summary)” value (compatibility test of raw and auxiliary materials) was “unstable under the conditions of high humidity, illumination and acceleration”. The “Change of relevant substance (in words)” value (high humidity 92.5% RH, opened) was “increased significantly at RRT0.46, RRT1.16, RRT1.64 and RRT1.73, and increased slightly at RRT1.41 and RRT1.74” and the “Change of relevant substance (in words)” value (illumination, opened) was “increased slightly at RRT 0.89 and RRT 1.29”.
